The source of these data is BindingDB's records for doi:10.1016/j.bmcl.2004.01.021 (Atherogenics, 2004).

In this experiment the target is T1, Tumor necrosis factor receptor superfamily member 1A (Homo sapiens, UniProt P19438).
T1 sequence (P19438 whole entry): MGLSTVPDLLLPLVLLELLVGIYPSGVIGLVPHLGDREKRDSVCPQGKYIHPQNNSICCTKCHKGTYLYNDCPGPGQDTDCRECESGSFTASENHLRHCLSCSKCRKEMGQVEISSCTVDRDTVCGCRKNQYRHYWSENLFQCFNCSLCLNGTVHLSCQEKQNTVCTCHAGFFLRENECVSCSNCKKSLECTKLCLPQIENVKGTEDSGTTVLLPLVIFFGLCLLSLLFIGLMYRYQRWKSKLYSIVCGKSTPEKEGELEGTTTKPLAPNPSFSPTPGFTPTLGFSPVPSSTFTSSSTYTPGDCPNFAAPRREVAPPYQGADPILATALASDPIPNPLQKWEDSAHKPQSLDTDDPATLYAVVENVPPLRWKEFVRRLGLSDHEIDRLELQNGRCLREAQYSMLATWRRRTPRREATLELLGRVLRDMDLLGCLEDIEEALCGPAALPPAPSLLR
The experiment can be described thus: ChEBML_224214. An excerpt: Inhibition of TNF-alpha-induced VCAM-1 expression
The molecule `COc1ccc(/C=C/C(=O)c2ccc(OC)cc2OC)cc1` [1-(2,4-Dimethoxy-phenyl)-3-(4-methoxy-phenyl)-propenone] gave an IC50 of 7 µM. As to `COc1ccc(C(=O)/C=C/c2ccccc2)cc1` [1-(4-methoxyphenyl)-3-phenylprop-2-en-1-one (6)], 14 µM corresponded to half-maximal inhibition (IC50). The result for `COc1cc(OC)c(-c2cc3ccccc3s2)cc1/C=C/C(=O)c1ccc(OC(C)(C)C(=O)O)cc1` [2-{4-[(E)-3-(5-Benzo[b]thiophen-2-yl-2,4-dimethoxy-phenyl)-acryloyl]-phenoxy}-2-methyl-propionic acid] reads 6 µM; that for `COc1cc(OC(C)(C)C(=O)O)c(/C=C/C(=O)c2ccc(C(F)(F)F)cc2)cc1-c1cccs1` [2-{5-Methoxy-2-[(E)-3-oxo-3-(4-trifluoromethyl-phenyl)-propenyl]-4-thiophen-2-yl-phenoxy}-2-methyl-propionic acid], 4 µM. As to `COc1ccc(C(=O)/C=C/c2ccccc2)cc1OC` [3',4'-dimethoxychalcone], the IC50 was determined as 8 µM.

Molecule `COc1ccc(C(=O)/C=C/c2ccc(OC)cc2OC)cc1` [3-(2,4-Dimethoxy-phenyl)-1-(4-methoxy-phenyl)-propenone] gave an IC50 of 29 µM.

With `COc1cc(OC)c(CCC(=O)c2cc(OC)c(OC)c(OC)c2)cc1Br` [3-(5-Bromo-2,4-dimethoxy-phenyl)-1-(3,4,5-trimethoxy-phenyl)-propan-1-one], the IC50 is above 50 µM. For `COc1ccc(Br)cc1CCC(=O)c1cc(OC)c(OC)c(OC)c1` [3-(5-Bromo-2-methoxy-phenyl)-1-(3,4,5-trimethoxy-phenyl)-propan-1-one], the IC50 is above 50 µM. Regarding `COc1cc(C(=O)/C=C/c2ccccc2)cc(OC)c1OC` [3-phenyl-1-(3,4,5-trimethoxyphenyl)prop-2-en-1-one], half-maximal inhibition (IC50) required 6 µM. Turning to `CCOC(=O)c1ccc(COc2ccc(C(=O)/C=C/c3cc(-c4cccs4)ccc3OC)cc2OC)cc1` [4-{2-Methoxy-4-[(E)-3-(2-methoxy-5-thiophen-2-yl-phenyl)-acryloyl]-phenoxymethyl}-benzoic acid ethyl ester], inhibition was half-maximal at 4 µM (IC50). In the case of `COc1ccc(-c2cccs2)cc1/C=C/C(=O)c1ccc(OCc2ccc(C(=O)O)cc2)c(OC)c1` [4-{2-Methoxy-4-[(E)-3-(2-methoxy-5-thiophen-2-yl-phenyl)-acryloyl]-phenoxymethyl}-benzoic acid], 5 µM corresponded to half-maximal inhibition (IC50). Take `COc1ccc(-c2cccs2)cc1C=CC(=O)c1ccc(OCc2ccc(NC(=O)OC(C)(C)C)cc2)c(OC)c1` [(4-{2-Methoxy-4-[(E)-3-(2-methoxy-5-thiophen-2-yl-phenyl)-acryloyl]-phenoxymethyl}-phenyl)-carbamic acid tert-butyl ester]: the IC50 is above 50 µM. As for `O=C(/C=C/c1ccc(F)cc1)c1ccc(F)cc1` [(E)-1,3-Bis-(4-fluoro-phenyl)-propenone], the 50% inhibitory concentration (IC50) came to 25 µM. Molecule `COc1cc(/C=C/C(=O)c2ccc3c(c2)OC(O)(O)O3)cc(-c2cccs2)c1OC` [(E)-1-(2,2-Dihydroxy-benzo[1,3]dioxol-5-yl)-3-(3,4-dimethoxy-5-thiophen-2-yl-phenyl)-propenone] had a concentration for half-maximal inhibition (IC50) of 1 µM. The molecule `COc1ccc(OC)c(C(=O)/C=C/c2cc(-c3cccs3)ccc2OC)c1` [(E)-1-(2,5-Dimethoxy-phenyl)-3-(2-methoxy-5-thiophen-2-yl-phenyl)-propenone] yielded an IC50 of 2 µM.

As to `COc1ccc(-c2cccs2)cc1/C=C/C(=O)c1c(OC)cccc1OC` [(E)-1-(2,6-Dimethoxy-phenyl)-3-(2-methoxy-5-thiophen-2-yl-phenyl)-propenone], inhibition was half-maximal at 3 µM (IC50). Under `COc1ccc(/C=C/C(=O)c2ccc(OC)c(OC)c2)cc1` [(E)-1-(3',4'-Dimethoxyphenyl)-3-(4''-methoxyphenyl)prop-2-en-1-one] stands 6 µM; under `COc1cc(-c2cccc(C(C)=O)c2)ccc1C(=O)C=Cc1cc(OC)c(OC)c(OC)c1` [(E)-1-(3'-Acetyl-3-methoxy-biphenyl-4-yl)-3-(3,4,5-trimethoxy-phenyl)-propenone], 4 µM.
